≈ marks a conversion by molar mass, not a printed value. Bounds are passed on as bounds.

What all share (assay): microbe, parasite or virus in culture
Common to all, as to format: cell-based, Mycobacterium tuberculosis

The test system of assay [1] is M. tuberculosis clinical isolate CF158. As to conditions: for MIC90: Mycobacterium tuberculosis, read-out: MIC90 of the Compounds, isolate CF158; for MIC90 of the Compounds, isolate CF158: REMA, CF158 resistant to INH and RIF, NL = not loaded (DMSO), L = loaded into NLS.
The test system of assay [2] is M. tuberculosis clinical isolate CF100. As to conditions: for MIC90: Mycobacterium tuberculosis, read-out: MIC90 of the Compounds, isolate CF100; for MIC90 of the Compounds, isolate CF100: REMA, CF100 resistant to INH, NL = not loaded (DMSO), L = loaded into NLS.
For assay [3], the system named is M. tuberculosis clinical isolate CF169. As to conditions: for MIC90: Mycobacterium tuberculosis, read-out: MIC90 of the Compounds, isolate CF169; for MIC90 of the Compounds, isolate CF169: REMA, CF169 resistant to INH and RIF, NL = not loaded (DMSO), L = loaded into NLS.

Regarding `NCC[C@H](O)C(=O)N[C@@H]1C[C@H](N)[C@@H](O[C@H]2O[C@H](CN)[C@@H](O)[C@H](O)[C@H]2O)[C@H](O)[C@H]1O[C@H]1O[C@H](CO)[C@@H](O)[C@H](N)[C@H]1O` [AMI, amikacin], the results for the MIC90 in assay [1], in assay [2] and in assay [3] were 0.6 µg/mL (≈ 1.02 µM), 0.7 µg/mL (≈ 1.2 µM) and 0.6 µg/mL (≈ 1.02 µM), respectively.
Turning to `COc1c(N2CCNC(C)C2)c(F)cc2c(=O)c(C(=O)O)cn(C3CC3)c12` (stereo not shown) [GAT, gatifloxacin], the figures for the MIC90 in assay [1], in assay [2] and in assay [3] were 0.2 µg/mL (≈ 0.533 µM), 0.5 µg/mL (≈ 1.33 µM) and 1.2 µg/mL (≈ 3.2 µM), respectively.
Consider `NNC(=O)c1ccncc1` [INH, isoniazid], for which, in assay [1], the MIC90 was above 50 µg/mL and the “MIC90 of the Compounds, isolate CF158” value was above 50 µg/mL. For the same compound, in assay [2], the MIC90 is above 50 µg/mL and the “MIC90 of the Compounds, isolate CF100” value is above 50 µg/mL. The MIC90 in assay [3] is above 50 µg/mL.
Consider `NC[C@@H]1O[C@@H](O[C@H]2[C@H](O)[C@@H](O[C@H]3O[C@H](CO)[C@@H](O)[C@H](N)[C@H]3O)[C@H](N)C[C@@H]2N)[C@@H](O)[C@H](O)[C@H]1O` [KAN], for which, in assay [1], the “MIC90 of the Compounds, isolate CF158” value was determined as 2.8 µg/mL. Also, in assay [2], the “MIC90 of the Compounds, isolate CF100” value was 7.8 µg/mL. In addition, the “MIC90 of the Compounds, isolate CF169” value in assay [3] was 1.5 µg/mL.
For the compound `CC1COc2c(N3CCN(C)CC3)c(F)cc3c(=O)c(C(=O)O)cn1c23` (stereo not shown) [OFL, ofloxacin], the MIC90 in assay [1] came to 0.7 µg/mL (≈ 1.94 µM); in assay [2], 0.9 µg/mL (≈ 2.49 µM); in assay [3], 11.5 µg/mL (≈ 31.8 µM).
As for `CO[C@H]1/C=C/O[C@@]2(C)Oc3c(C)c(O)c4c(O)c(c(/C=N/N5CCN(C)CC5)c(O)c4c3C2=O)NC(=O)/C(C)=C\C=C\[C@H](C)[C@H](O)[C@@H](C)[C@@H](O)[C@@H](C)[C@H](OC(C)=O)[C@@H]1C` [RIF, rifampicin], in assay [1], the MIC90 was above 50 µg/mL and the “MIC90 of the Compounds, isolate CF158” value was above 50 µg/mL. For the same compound, the MIC90 in assay [2] was below 0.195 µg/mL. Besides, in assay [3], the MIC90 is above 50 µg/mL and the “MIC90 of the Compounds, isolate CF169” value is above 50 µg/mL.
`Cc1ccnc(-c2cc(C)ccn2)c1.F[P-](F)(F)(F)(F)F.O=C([O-])c1ccccn1.[Ru+2].c1ccc(P(CCCCP(c2ccccc2)c2ccccc2)c2ccccc2)cc1` [SCAR2, [Ru(pic)(dppb)(Me-bipy)]PF6]: in assay [1], the “MIC90 of the Compounds, isolate CF158” value was 1.6^∗ μg mL^-1. In addition, the “MIC90 of the Compounds, isolate CF100” value in assay [2] stood at 5.7 µg/mL. The “MIC90 of the Compounds, isolate CF169” value in assay [3] was 2.6^∗ μg mL^-1.
As for `F[P-](F)(F)(F)(F)F.O=C([O-])c1ccccn1.[Ru+2].c1ccc(P(CCP(c2ccccc2)c2ccccc2)c2ccccc2)cc1.c1ccc(P(CCP(c2ccccc2)c2ccccc2)c2ccccc2)cc1` [SCAR5, cis-[Ru(pic)(dppe)2]PF6], in assay [1], the “MIC90 of the Compounds, isolate CF158” value is recorded as 2.9^∗ μg mL^-1. In addition, the “MIC90 of the Compounds, isolate CF100” value in assay [2] was 5.1 µg/mL. Moreover, the “MIC90 of the Compounds, isolate CF169” value in assay [3] was 2.9^∗ μg mL^-1.
[Ru(pic)(dppb)(bipy)]PF6 [SCAR1]: in assay [1], the “MIC90 of the Compounds, isolate CF158” value is reported as 2.6^∗ μg mL^-1. In addition, the “MIC90 of the Compounds, isolate CF100” value in assay [2] worked out at 10.9 µg/mL. Also, the “MIC90 of the Compounds, isolate CF169” value in assay [3] is reported as 2.9^∗ μg mL^-1.
The matching figures for [Ru(pic)(dppb)(phen)]PF6 [SCAR4]: 2.7 µg/mL, 5.4 µg/mL and 3.0 µg/mL.
In the case of [Ru(pic)(dppe)(phen)]PF6 [SCAR7], the “MIC90 of the Compounds, isolate CF158” value in assay [1] was 3.0 µg/mL. Moreover, the “MIC90 of the Compounds, isolate CF100” value in assay [2] is 7.3^∗ μg mL^-1. Besides, in assay [3], the “MIC90 of the Compounds, isolate CF169” value is 4.4 µg/mL.

These data come from PMC6291527, “A Nanostructured Lipid System to Improve the Oral Bioavailability of Ruthenium(II) Complexes for the Treatment of Infections Caused by Mycobacterium tuberculosis” (Frontiers in Microbiology, 2018).
